Results on six compounds are retold here after patent US7521540B2, “CYR61 compositions and methods” (Munin Corporation, priority 1996, dated 2009).

Assay [1] concerns 1064SK primary human foreskin fibroblasts. The assay is described as follows: Fibroblast adhesion assay (methylene blue, A620). In kind it is cell-based. Here is the method:
The ability of Cyr61 to mediate cell adhesion in normal fibroblasts was investigated. Microtiter wells were coated with purified recombinant Cyr61 protein, and 1064SK primary human foreskin fibroblasts were allowed to adhere under serum-free conditions. […] 50 μl cell suspensions were plated on microtiter wells coated with varying concentrations (0.5-5.0 μg/ml) of Cyr61 protein. After incubation at 37° C. for 30 minutes, adherent cells were fixed and stained with methylene blue.
In another experiment, microtiter wells were coated with either BSA, Cyr61 (2 μg/ml), or vitronectin (VN; 0.5 μg/ml) and blocked with affinity-purified anti-Cyr61 antibodies for one hour at 37° C. before 1064SK cells were plated.
The effects of divalent cations in cell adhesion to Cyr61 was also investigated. […] Data are means from triplicate determinations. […] Inhibition by Ca^2+ is characteristic of adhesion through some members of the β1 family of integrins, including receptors that bind type I collagen, laminin, and vitronectin (integrins α2β1, α6β1, and αVβ1) in fibroblasts, as well as the lymphocyte-specific integrin αLβ2.
The effects of RGD peptides on Cyr61-mediated fibroblast binding was tested by plating cells in wells coated with Cyr61 (2 μg/ml). Type I collagen (2 μg/ml) or vitronectin (0.5 μg/ml), 2 mM GRGDSP or GRGESP peptide was then added.
Cells were also pre-incubated with 40 μg/ml monoclonal antibodies against the integrin α5 or the integrin αV subunits at room temperature for 30 minutes, then plated on wells coated with Cyr61 (2 μg/ml), vitronectin (0.5 μg/ml) or fibronectin (FN, 1 μg/ml). […] The data are means, representative of three experiments.
The 1064 SK cells were also analyzed using the monoclonal antibody JBIA, which binds the β1 integrin subunit. Cells were pre-incubated with the antibody (50 μg/ml) before plating on microtiter wells coated with Cyr61 (2 μg/ml), Type I collagen (2 μg/ml), or vitronectin (0.5 μg/ml). […] Data are means, representative of three experiments.
To identify the specific β1 integrin that mediates fibroblast adhesion to Cyr61, the inhibitory effects of function-blocking monoclonal antibodies were tested against various integrin α subunits. […] The data are means, representative of at least three experiments.

Assay [2] has as its system HUVE cells. The assay is described as follows: Fisp12 cell attachment assay, HUVE cells. To be noted: EDTA added to culture medium; cell type not stated. In kind it is cell-based, human. The method, then:
The capacity of Fisp12 to affect cell adhesion was also investigated. Fisp12 cell attachment assays were performed essentially as described (Oliver et al., [1989]). 96-well immunological plates were coated for 16 hours at 4° C. with 20 μg/ml Cyr61, Fisp12 or fibronectim (Gibco BRL) in PBS containing 0.1 mg/ml BSA and blocked with 10 mg/ml BSA for 1 hour at room temperature. HUVE cells were plated at 10^4 cells/well in F12K media with 10% FBS (Hyclone Laboratories, Inc., Logan, Utah); NIH 3T3 fibroblasts were plated at 3×10^4 cells/well and Mv1Lu cells were plated at 5×10^4 cells/well in minimal essential medium (MEM) with 10% FBS. After 1 hour incubation cells were fixed, stained with methylene blue and quantified as described (Oliver et al., [1989]). Cell spreading was examined on cells plated on 100 mm polystyrene petri dishes coated with 2.5 ml of a 20 μg/ml solution of Cyr61, Fisp12 or fibronectin. 10^7 cells were plated on each dish and cell spreading was analyzed 90 minutes after plating by microscopy at 100× magnification.

In assay [3] the test system is platelets. The experiment in a line: Platelet adhesion assay. In kind it is cell-based, human. The method, then: Microtiter wells were coated with purified recombinant Fisp12/mCTGF or Cyr61, and the adhesion of isolated platelets to these proteins was detected with ^125I-mAb15, an anti-β3 monoclonal antibody (Frelinger et al., J. Biol. Chem 265:6346-6352 [1990]). Platelets were obtained from venous blood drawn from healthy donors and collected into acid-citrate-dextrose (ACD). Washed platelets were prepared by diffenential centrifugation as described (Kinlough-Rathbone et al. Thromb. Haemostas 2:291-308 [1997]), and finally resuspended in HEPES-Tyrode's buffer (5 mM HEPES, pH 7.35, 1 mM MgCl2, 1 mM CaCl2, 135 mM NaCl, 2.7 mM KCl, 11.9 mM NaHCO3, 1 mg/ml dextrose and 3.5 mg/ml BSA). The platelet concentration was adjusted to […].
Microtiter wells (Immulon 2 removawell strips, Dynex Technologies, Inc.) were coated with Cyr61, Fisp12/mCTGF, or fibrinogen (25 μg/ml, 50 μl/well) incubated overnight at 22° C., and then blocked with 3% BSA at 37° C. for 2 hours. Washed platelets were added to the wells (100 μl/well) in the presence and absence of platelet agonists and incubated at 37° C. for 30 minutes. The wells were washed with HEPES-Tyrode's buffer and adherent platelets were detected with ^125I-mAb15, an anti-β3 monoclonal antibody. Exposure to the labeled antibody ([…], 50 μl/well) proceeded for 1 hour at 22° C. After extensive washing with HEPES-Tyrode's buffer, bound radioactivity was determined by γ-counting. In inhibition studies, washed platelets were pre-incubated with blocking peptides or antibodies at 37° C. for 15 minutes prior to addition to microtiter wells.
The anti-β3 antibody was radioiodinated with carrier-free Na^125I (Amersham Corp.) using the IODO-BEADS iodination reagent (Pierce) to a specific activity of approximately 2 μCi/μg. […] As controls, BSA- and fibrinogen-coated (KabiVitrum Inc.) wells were also used. Initially, the adhesion of unactivated versus activated platelets to immobilized Fisp12/mCTGF and Cyr61 was compared. To ensure that plateltes were not activated during the washing procedures, PGl2 (100 nM), which inhibits activation by raising platelet cAMP levels, was added to the platelet suspensions. […]

Assay [4] has as its target T1, αllbβ3 (Homo sapiens, UniProt P05106+P08514).
T1 construct: from tissue; host or cells: outdated human platelets
The experiment in a line: Solid-phase binding assay with purified integrin. Here is the method:
In these experiments, activated and unactivated αllbβ3 were purified from platelet lysates. Activated αllbβ3 was purified by RGD affinity chromatography, as described (Knezevic et al., J. Biol. Chem. 271:16416-16421 [1996]). Briefly, outdated human platelets were isolated by differential centrifugation and solubilized in lysis buffer (10 mM HEPES, pH 7.4, 0.15 M NaCl, containing 1 mM CaCl2, 1 mM MgCl2 100 μM leupeptin, 1 mM phenylmethylsulfonyl fluoride, 10 mM-ethylmaleimide, and 50 mM octylglucoside). The octylglucoside extract was incubated with 1 ml GRGDSPK-coupled Sepharose 4B overnight at 4° C. After washing with 15 ml column buffer (same as lysis buffer except it contained 25 mM octylglucoside), bound αllbβ3 was eluted with 1.7 mM H12 (2 ml) in column buffer. The H12 eluate was applied to a Sephacryl S-300 High Resolution column (1.5×95 cm), and αllbβ3 was eluted with 10 mM HEPES, pH 7.4, 0.15 M NaCl, 1 mM CaCl2, 1 mM MgCl2 and 25 mM octylglucoside.
Unactivated αllbβ3 was isolated by the method of Fitzgerald et al., Anal. Biochem. 151:169-177 (1985), with slight modifications. The flow-through fraction of the GRGDSPK-Sepharose column was applied to a concanavalin A-Sepharose 4B column (1×20 cm). Unbound proteins were washed with 50 ml column buffer, and bound αllbβ3 was then eluted with 100 mM mannose dissolved in column buffer. Fractions containing αllbβ3 were further purified on a Sephacryl S-300 High Resolution column
To perform the solid-phase binding assay, purified αllbβ3 was added to wells coated with either Cyr61 or Fisp12 (mCTGF) in the presence or absence of inhibitors and binding was allowed to proceed for 3 hours at 37° C. Unbound receptor was removed and the wells wee washed twice with HEPES-Tyrode's Buffer. The binding of purified αllbβ3 to Cyr61 or Fisp12/mCTGF immobilized onto microtiter wells was detected with ^125I-mAb15.

For assay [5], the target named is T2, αVβ3 integrin (Homo sapiens, UniProt P05106+P06756).
T2 construct: αVβ3 integrin purification from HUVE cell lysates was done as described in Pytela et al; endogenous in cells; host or cells: HUVE cells
T2 sequence (P06756 31-889 limits assumed): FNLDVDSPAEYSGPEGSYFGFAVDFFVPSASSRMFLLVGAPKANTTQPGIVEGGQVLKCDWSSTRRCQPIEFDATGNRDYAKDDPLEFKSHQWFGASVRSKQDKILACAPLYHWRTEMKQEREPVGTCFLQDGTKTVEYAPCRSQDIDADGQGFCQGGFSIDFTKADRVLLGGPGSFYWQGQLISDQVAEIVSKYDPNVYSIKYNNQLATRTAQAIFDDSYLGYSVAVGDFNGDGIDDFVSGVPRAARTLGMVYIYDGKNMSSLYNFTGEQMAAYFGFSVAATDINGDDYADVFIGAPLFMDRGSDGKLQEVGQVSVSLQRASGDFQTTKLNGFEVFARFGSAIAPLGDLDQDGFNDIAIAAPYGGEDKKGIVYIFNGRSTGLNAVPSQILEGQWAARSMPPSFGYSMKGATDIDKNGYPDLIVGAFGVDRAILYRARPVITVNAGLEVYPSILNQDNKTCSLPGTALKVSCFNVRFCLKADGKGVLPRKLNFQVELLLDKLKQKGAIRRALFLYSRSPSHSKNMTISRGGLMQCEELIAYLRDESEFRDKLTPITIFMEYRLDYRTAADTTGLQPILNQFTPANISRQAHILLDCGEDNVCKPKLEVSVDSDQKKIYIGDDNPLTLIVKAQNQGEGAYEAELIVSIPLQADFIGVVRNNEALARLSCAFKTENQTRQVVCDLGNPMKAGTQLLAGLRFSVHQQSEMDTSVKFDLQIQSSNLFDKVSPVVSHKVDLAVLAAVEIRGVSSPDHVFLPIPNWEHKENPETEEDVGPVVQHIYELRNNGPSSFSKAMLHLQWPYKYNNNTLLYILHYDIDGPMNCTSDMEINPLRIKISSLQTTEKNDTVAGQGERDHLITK
T2 sequence (P06756 891-1048 partner limits assumed): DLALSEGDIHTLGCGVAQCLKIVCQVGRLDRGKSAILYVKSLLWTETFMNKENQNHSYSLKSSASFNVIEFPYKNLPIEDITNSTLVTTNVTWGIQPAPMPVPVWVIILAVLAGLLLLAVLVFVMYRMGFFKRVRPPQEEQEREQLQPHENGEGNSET
T2 sequence (P05106 27-788): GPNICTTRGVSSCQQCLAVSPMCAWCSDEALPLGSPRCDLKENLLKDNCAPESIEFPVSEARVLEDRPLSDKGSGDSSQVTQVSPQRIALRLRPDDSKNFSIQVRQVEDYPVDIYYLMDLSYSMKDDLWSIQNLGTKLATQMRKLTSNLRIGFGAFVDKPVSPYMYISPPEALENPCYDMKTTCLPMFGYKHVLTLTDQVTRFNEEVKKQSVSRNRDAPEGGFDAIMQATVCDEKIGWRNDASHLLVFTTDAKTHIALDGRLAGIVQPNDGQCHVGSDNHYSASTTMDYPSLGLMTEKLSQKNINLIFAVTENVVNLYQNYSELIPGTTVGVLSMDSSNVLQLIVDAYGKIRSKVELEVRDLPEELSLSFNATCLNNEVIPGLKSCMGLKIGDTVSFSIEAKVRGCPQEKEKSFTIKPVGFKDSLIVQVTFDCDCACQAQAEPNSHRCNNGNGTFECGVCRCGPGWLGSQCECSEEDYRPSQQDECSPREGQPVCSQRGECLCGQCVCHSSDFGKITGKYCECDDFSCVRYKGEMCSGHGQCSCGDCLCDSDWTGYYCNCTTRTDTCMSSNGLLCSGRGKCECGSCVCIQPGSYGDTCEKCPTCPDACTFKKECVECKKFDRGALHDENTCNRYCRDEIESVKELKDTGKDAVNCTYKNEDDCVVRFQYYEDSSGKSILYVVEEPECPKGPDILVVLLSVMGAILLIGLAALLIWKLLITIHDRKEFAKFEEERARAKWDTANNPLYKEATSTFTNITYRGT
The experiment in a line: Integrin binding assay (ligand-receptor ELISA). The method, then: αVβ3 integrin purification from HUVE cell lysates was done as described in Pytela et al., Meth. Enzynmol., 144:475-489 (1987). Briefly, 10^8 cells were lysed in 1 ml of PBS containing 1 mM CaCl2, 1 mM MgCl2, 0.5 mM PMSF and 100 mM octylglucoside. The lysate was passed four times through a 0.5 ml column containing RGDSPK Sepharose (prepared from the cyanogen bromide activated Sepharose CL 4B as described in Lam, S. C-T., J. Biol. Chem., 267:5649-5655 (1992). The column was washed with 10 ml of the lysis buffer and the bound protein was eluted with 2 ml of the same buffer containing 1 mM RGDS peptide at room temperature. The αVβ3 integrin was dialyzed against PBS containing 1 mM CaCl2, 1 mM MgCl2, 5 mM octylglucoside and 0.1 mM PMSF with three changes of the dialysis buffer to remove the RGDS peptide. The protein was stored in aliquots at −70° C. The purity of the integrin was determined by SDS-PAGE under non-reducing conditions, followed by silver staining.
The integrin binding assay was developed in accordance with the disclosures in Brooks et al., Cell 85:683-693 (1996), and Lam, S. C-T (1992). Approximately 50 ng of the integrin in a total volume of 50 μl were added per well of 96-well immunological Pro-Bind plates (Falcon) and incubated overnight at 4° C. Non-specific sites were blocked with 20 mg/ml BSA in the same buffer and washed four times in that buffer. Treated plates were incubated with 1 μg/ml Cyr61 or 0.1 μg/ml vitronectin for 3 hours at room temperature. […] The final dilution of the LM609 ascites fluid was 1:200. Bound proteins were detected by specific polyclonal antisera (anti-Cyr61 antiserum was diluted 1:500 and anti-vitronectin antiserum was diluted 1:1000 in PBS containing 1 mM CaCl2, 1 mM MgCl2, and 5 mg/ml BSA) followed by a secondary antibody-horseradish peroxidase conjugate (1:20000 in the same buffer). […] Horseradish peroxidase (HRP) was detected with an HRP immunoassay kit (Bio-Rad Laboratories). The colorimetric reaction was developed for 15-30 minutes at room temperature, stopped by the addition of H2SO4, and the absorbance at 450 nm was measured. […]
Background: An ELISA detects its analyte on a solid surface through an enzyme-linked reagent.

Assay [6] relates to Limb mesenchymal cells. Conditions: 50 μg/ml (200 nM), literature; cited from earlier work.
Assay [7] has as its system Limb mesenchymal cells. The experiment in a line: Limb bud mesenchymal cell attachment. In kind it is cell-based, mouse. Conditions: within 1 hour of plating. Here is the method: Cyr61, fibronectin (Gibco), or tenascin (Gibco) were diluted in 0.1% protease-free bovine serum albumin (BSA) in PBS with 0.5 mM PMSF, to a final concentrations of 10 or 50 μg/ml. A 10 μl drop/well was placed in a non-tissue culture treated 24-well plate (Corning), and incubated at room temperature for 2 hours. The wells were blocked with 1% BSA in PBS for 1 hour at room temperature, and rinsed with serum-free MEM (Modified Eagle's Medium). Limb mesenchymal cells, suspended at 5×10^5 cell/ml in serum-free MEM, were added at a volume of 400 μl/well, and incubated at 37° C., 5% CO2 for 1 or 3 hours. At each time point, the cell suspension was removed, the wells were rinsed with MEM and the remaining adherent cells were photographed.

Where [8] appears, read: EDTA 5 mM, RGDS 0.5 mM, LM609 ascites 1:200.

As for `O=C(O)CN(CCN(CC(=O)O)CC(=O)O)CC(=O)O` [EDTA, Ethylenediamine tetraacetic acid], the “1064SK adhesion to Cyr61-coated wells with agent” value in assay [1] (Cyr61 2 μg/ml, agent at the level stated in the block, Mg2+ 5.0 mM after EDTA) is “about 0.12 A620”. In assay [1] (Type I collagen 2 μg/ml), the “1064SK adhesion to Type I collagen-coated wells with agent” value worked out at 0.10 A620. For the same compound, in assay [1] (vitronectin 0.5 μg/ml), the “1064SK adhesion to vitronectin-coated wells with agent” value is on record as 0.05 A620. For the same compound, the “effect of agent on Fisp12-mediated cell attachment” value in assay [2] is “inhibited”. In assay [3], the “effect of agent on activated platelet adhesion to Cyr61 and Fisp12/mCTGF” value (“effect of agent … to Cyr61 and Fisp12/mCTGF” below) is reported as “completely abolished platelet adhesion to both proteins”; the “effect of agent on adhesion of ADP-activated platelets to fibrinogen” value (“effect of agent on adhesion … to fibrinogen” for short) is listed as “completely inhibited”.
Turning to H-HHLGGAKQAGDV-OH [H12], the “effect of agent on activated αllbβ3 binding to Fisp12/mCTGF and Cyr61” value (“effect of agent … to Fisp12/mCTGF and Cyr61” below) in assay [4] is listed as “effectively inhibited”. In assay [3], the “effect of agent … to Cyr61 and Fisp12/mCTGF” value was “inhibited platelet adhesion to Cyr61 and Fisp12/mCTGF”; the “effect of agent on adhesion … to fibrinogen” value is reported as “completely inhibited”.
For RGDS, in assay [5] (setting [8]), the “effect of agent on Cyr61 interaction with αVβ3” value was “inhibited” and the “effect of agent on vitronectin interaction with αVβ3” value is recorded as “inhibited”. Moreover, the “effect of agent … to Fisp12/mCTGF and Cyr61” value in assay [4] is reported as “specifically blocked”. Also, the “effect of agent on adhesion … to fibrinogen” value in assay [3] is “completely inhibited”.
Turning to echistatin, in assay [4], the “effect of agent … to Fisp12/mCTGF and Cyr61” value was “effectively inhibited”. Besides, in assay [3], the “effect of agent … to Cyr61 and Fisp12/mCTGF” value was “completely blocked platelet adhesion to both proteins”; the “effect of agent on adhesion … to fibrinogen” value is listed as “completely inhibited”.
Turning to tenascin: ECM protein (Gibco), the “increase of chondrogenesis in micromass cultures” value in assay [6] is given as 3 fold. Moreover, in assay [7], the “attachment morphology of limb mesenchymal cells” value is “adhered as clusters of rounded cells”.
In the case of “vitronectin: Human plasma vitronectin, serum spreading factor”, in assay [5] (1 μg/ml Cyr61 or 0.1 μg/ml vitronectin), the “binding to immobilized αVβ3 integrin” value was “bound to the immobilized integrin”. In addition, the “inhibition by anti-α6 antibody of binding mediated by the coated protein” value in assay [1] (anti-α6 20 μg/ml) was 9%.
